Results: patent US12622915B2, “Methods of treating PDE IV-mediated diseases or conditions” (Vanda Pharmaceuticals Inc., priority 2020, dated 2026)

Legend:
Phosphodiesterase PDE9A2 = biological target: T1, Phosphodiesterase PDE9A2 (Homo sapiens, UniProt O76083); assay: Phosphodiesterase PDE9A2 enzyme assay; assay type: biochemical; settings: N=2, Example 3
T1 construct: host or cells: insect Sf9 cells
Source text: (§1) Reference standards are run as an integral part of each assay to ensure the validity of the results obtained. Reference Compounds: • Phosphodiesterase PDE10A2 Papaverine • Phosphodiesterase PDE11A4 Dipyridamole • Phosphodiesterase PDE1A MMPX • Phosphodiesterase PDE2A EHNA • Phosphodiesterase PDE3A Cilostamide • Phosphodiesterase PDE4A1A Rolipram • Phosphodiesterase PDE4B1 Rolipram • Phosphodiesterase PDE5A Zaprinast • Phosphodiesterase PDE6 Zaprinast • Phosphodiesterase PDE7A IBMX • Phosphodiesterase PDE7B IBMX • Phosphodiesterase PDE8A1 Dipyridamole • Phosphodiesterase PDE9A2 Zaprinast
Phosphodiesterase PDE1A; Phosphodiesterase PDE5A; and Phosphodiesterase PDE9A2: • Source: Human recombinant insect Sf9 cells • Substrate: 0.10 μM […] • Vehicle: 1.00% DMSO • Significance Crit.: ≥50% of max stimulation or inhibition • Incubation Buffer: 10 mM Tris-HCl, pH 7.2, 10 mM MgCl2, 0.05% NaN3, 0.1% phosphate-free BSA • Quantitation Method: Quantitation of Fluorescein-GMP-IMAP • Pre-Incub. Time/Temp: 15 minutes @25° C. • Incubation Time/Temp: 30 minutes @25° C.
IC50 values are determined by a non-linear, least squares regression analysis using MathIQ™ (ID Business Solutions Ltd., UK). […] Where presented, the Hill coefficient (nH), defining the slope of the competitive binding curve, is calculated using MathIQ™. […]

Phosphodiesterase PDE6 = biological target: T2, Phosphodiesterase PDE6 (Bos taurus, UniProt P11541+P23439); assay: Phosphodiesterase PDE6 enzyme assay; assay type: biochemical, bovine; settings: N=2, Example 3
T2 construct: Source: Bovine retinal rod outer segments; from tissue; host or cells: bovine retinal rod outer segments
T2 sequence (P11541 2-856 limits assumed): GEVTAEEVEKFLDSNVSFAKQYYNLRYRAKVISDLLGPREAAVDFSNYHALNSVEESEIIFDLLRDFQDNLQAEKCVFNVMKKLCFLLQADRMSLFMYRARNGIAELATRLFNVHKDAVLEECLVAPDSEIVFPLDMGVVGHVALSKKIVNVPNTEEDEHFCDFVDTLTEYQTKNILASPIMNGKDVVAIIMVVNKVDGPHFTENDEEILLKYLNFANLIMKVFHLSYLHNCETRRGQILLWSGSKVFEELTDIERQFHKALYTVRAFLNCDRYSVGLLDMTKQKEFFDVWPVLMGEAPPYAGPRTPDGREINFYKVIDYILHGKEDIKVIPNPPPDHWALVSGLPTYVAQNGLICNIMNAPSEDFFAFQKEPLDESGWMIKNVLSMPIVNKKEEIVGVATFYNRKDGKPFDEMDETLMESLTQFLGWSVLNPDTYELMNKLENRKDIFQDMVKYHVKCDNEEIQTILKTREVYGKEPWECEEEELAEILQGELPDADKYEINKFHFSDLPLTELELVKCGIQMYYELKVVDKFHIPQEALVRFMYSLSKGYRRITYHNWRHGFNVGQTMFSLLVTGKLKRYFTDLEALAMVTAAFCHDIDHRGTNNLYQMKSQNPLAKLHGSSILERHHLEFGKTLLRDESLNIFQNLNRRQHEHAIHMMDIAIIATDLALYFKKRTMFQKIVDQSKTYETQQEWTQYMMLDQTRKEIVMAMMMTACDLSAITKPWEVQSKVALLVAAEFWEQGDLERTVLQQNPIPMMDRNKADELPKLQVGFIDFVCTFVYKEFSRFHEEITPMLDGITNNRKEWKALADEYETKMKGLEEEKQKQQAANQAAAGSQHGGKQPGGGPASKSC
T2 sequence (P23439 2-850 limits assumed): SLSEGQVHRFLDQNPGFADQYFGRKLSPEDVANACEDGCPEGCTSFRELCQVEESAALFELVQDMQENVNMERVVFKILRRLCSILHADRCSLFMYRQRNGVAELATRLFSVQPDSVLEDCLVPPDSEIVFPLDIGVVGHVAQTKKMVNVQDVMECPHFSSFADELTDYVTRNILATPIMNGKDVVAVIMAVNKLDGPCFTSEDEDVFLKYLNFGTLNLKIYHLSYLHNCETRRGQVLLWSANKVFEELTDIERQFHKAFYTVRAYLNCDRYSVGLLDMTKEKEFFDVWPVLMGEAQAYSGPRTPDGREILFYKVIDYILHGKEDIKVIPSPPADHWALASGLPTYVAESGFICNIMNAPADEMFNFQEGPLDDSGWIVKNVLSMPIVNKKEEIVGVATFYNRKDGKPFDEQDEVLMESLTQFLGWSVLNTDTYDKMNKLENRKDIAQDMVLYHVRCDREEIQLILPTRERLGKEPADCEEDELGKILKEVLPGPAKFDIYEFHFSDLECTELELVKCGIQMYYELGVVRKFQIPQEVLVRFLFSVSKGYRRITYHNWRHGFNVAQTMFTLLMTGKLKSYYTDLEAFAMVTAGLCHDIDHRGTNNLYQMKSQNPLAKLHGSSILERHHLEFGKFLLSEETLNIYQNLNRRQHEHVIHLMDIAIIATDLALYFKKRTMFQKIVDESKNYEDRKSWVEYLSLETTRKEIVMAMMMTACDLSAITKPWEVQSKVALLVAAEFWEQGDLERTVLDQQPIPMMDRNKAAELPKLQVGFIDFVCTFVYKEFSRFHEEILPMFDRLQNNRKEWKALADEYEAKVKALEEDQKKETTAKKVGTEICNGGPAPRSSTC
Source text: as §1
Phosphodiesterase PDE6: • Source: Bovine retinal rod outer segments • Substrate: 100 μM [^3H]cGMP+cGMP • Vehicle: 1.00% DMSO • Significance Crit.: ≥50% of max stimulation or inhibition • Incubation Buffer: 50 mM Tris-HCl, pH 7.5, 5 mM MgCl2 • Quantitation Method: Quantitation of [^3H]Guanosine • Pre-Incub. […]
IC50 values are determined by a non-linear, least squares regression analysis using MathIQ™ (ID Business Solutions Ltd., UK). Where inhibition constants (Ki) are presented, the Ki values are calculated using the equation of Cheng and Prusoff (Cheng, Y., Prusoff, W. H., Biochem. Pharmacol. 22:3099-3108, 1973) using the observed IC50 of the tested compound, the concentration of radioligand employed in the assay, and the historical values for the KD of the ligand. […]

T1 sequence (O76083 1-533 isoform O76083-2): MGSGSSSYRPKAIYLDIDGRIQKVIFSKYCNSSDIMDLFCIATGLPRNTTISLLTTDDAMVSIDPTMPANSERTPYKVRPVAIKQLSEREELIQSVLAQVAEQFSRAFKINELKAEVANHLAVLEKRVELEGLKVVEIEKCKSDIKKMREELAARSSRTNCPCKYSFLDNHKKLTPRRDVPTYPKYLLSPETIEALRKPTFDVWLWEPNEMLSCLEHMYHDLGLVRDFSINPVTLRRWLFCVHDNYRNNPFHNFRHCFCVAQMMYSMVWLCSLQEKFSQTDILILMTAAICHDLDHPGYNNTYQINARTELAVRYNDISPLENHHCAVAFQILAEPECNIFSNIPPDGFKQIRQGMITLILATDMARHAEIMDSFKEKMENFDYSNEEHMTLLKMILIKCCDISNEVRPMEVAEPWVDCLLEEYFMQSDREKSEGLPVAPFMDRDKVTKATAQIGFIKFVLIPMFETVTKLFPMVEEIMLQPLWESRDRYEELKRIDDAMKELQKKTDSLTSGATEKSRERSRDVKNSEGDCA

inhibition at 10 µM (Phosphodiesterase PDE9A2): -2% | inhibition at 10 µM (Phosphodiesterase PDE6): 8%
SMILES: CNc1nc(Nc2ccccc2)nc(OCC(F)(F)C(F)F)n1 [compound of Formula (I), N^2-methyl-N^4-phenyl-6-(2,2,3,3-tetrafluoropropoxy)-1,3,5-triazine-2,4-diamine]
